Experiments:
Assay type in all cases: cell-based, human
[1] = test system: cell surface LDLR activity; test: Dil-LDL uptake assay in HepG2 naïve cells; details: 33.3 μM; HepG2 naïve cells
Experimental: HepG2 naive cells and HEK293 naive cells were plated in 96-well plates (CellBind black plate with clear bottom (Corning; Cat #3340)) at a density of 25,000 cells/well, in complete media (DMEM high glucose (+sodium pyruvate for HepG2) (Wisent)+10% FBS). After 20 hours, cells were washed for 30 min with serum free DMEM media (100 μl/well), the wash media was removed and replaced with 100 μl/well of incubation media (DMEM high glucose (+sodium pyruvate for HepG2) (Wisent)+0.07% BSA (Sigma-Aldrich)) containing compound at various concentrations ([…]) or DMSO control (0.4% final). Each condition was prepared in triplicates. After 6 hours incubation at 37° C., Dil-LDL (Biomedical Technologies (Cat #BT-904)) was added to the cell media (5 μl) at 5 μg/ml final concentration, and cells returned to tissue culture incubator for another 18 hours (a total of 24 hours incubation with the compounds). After 2 washes (200 μl/well) with ice-cold D-PBS (Wisent) and aspiration of the final wash, plates were scanned (bottom read) on a SpectraMax GeminiEM™ plate reader (Molecular Devices). For each well, raw Dil-LDL uptake was measured as the average fluorescence intensity (RFU) (ex: 520 nm/em: 575 nm, cutoff: 550 nm) of 9 readings in 3 different points in the well. Dil-LDL uptake in each well was corrected for total number of cells by performing a CyQuant™ cell assay (Invitrogen; Cat #C7026). Namely, after recording the Dil fluorescence, the plate was frozen overnight at −80° C. The next day, the plates were thawed at room temperature, the cells lysed according to the manufacturer's protocol, and the number of cells/well was determined by measuring the fluorescence (RFU) of the CyQuant green fluorescent dye bound to the cellular nucleic acids (ex: 485 nm/em: 538 nm, cutoff: 515 nm). For each condition, Dil-RFU was divided by CyQuant-RFU. Corrected dil-LDL uptake is reported as % DMSO control and was obtained from triplicate wells.
The PCSK9 inhibitory compounds were also characterized using a Dil-LDL fluorescent uptake assay as described in Poirier et al., J. Biol. Chem. 284: 28856-28864, 2009. The method entails the fluorescence measurement of the Dil-LDL cellular incorporation via LDLR internalization (a measurement of cell surface LDLR activity) in human hepatocyte derived HuH7 or HepG2 cell lines, or human embryonic HEK293 cells, in the presence or absence of compounds.
HepG2 naïve cells and HEK293 naïve cells were plated in 96-well plates (CellBind™ black plate with clear bottom (Corning; Cat #3340)). At 20 h post-seeding, cells were incubated in the absence (DMSO or negative control) or in the presence of different concentrations of compounds. Each condition was prepared in triplicates. After 6 hours incubation, Dil-LDL (Biomedical Technologies (Cat #BT-904)) was added to the cell media, and cells returned to tissue culture incubator for another 18 hours. Plates were scanned (bottom read) on a SpectraMax GeminiEM™ plate reader (Molecular Devices). For each well, raw Dil-LDL uptake was measured as the average fluorescence intensity (RFU) (ex: 520 nm/em: 575 nm, cutoff: 550 nm) of 9 readings in 3 different points in the well. Dil-LDL uptake in each well was corrected for total number of cells by performing a CyQuant™ cell assay (Invitrogen, Cat #C7026) according to the manufacturer's instructions. Corrected Dil-LDL uptake is reported as a % of DMSO control and was obtained from triplicate wells.

[2] = test system: HepG2 stable cells over-expressing WT PCSK9(+V5); test: MTT toxicity assay; details: 33.3 μM or less; 24 h
Experimental: HepG2 stable cells over-expressing hPCSK9(+V5) were seeded in complete DMEM (high glucose+sodium pyruvate) (Wisent)+10% FBS media in 96-well plates (Greiner BioOne) at a density of 1×10^5 cells/well (100 μl) and incubated for 20 hours. Cells were rinsed once with 100 ul/well of serum free DMEM media, followed by addition of 100 μl/well of DMEM (high glucose+sodium pyruvate) (Wisent)+0.07% BSA (Sigma-Aldrich) media containing compound at various concentrations (11, 33, 100 μM) or DMSO control (0.4% final) followed by overnight (24 hours) incubation. The MTT assay (Promega) consisted of addition of 20 μl/well MTT reagent and incubation for 45 minutes at 37° C., following the manufacturer's instructions. Absorbance was recorded at 490 nm and corrected for background due to nonspecific absorbance (690 nm).
For the MTT toxicity assay, HepG2 stable cells over-expressing WT PCSK9(+V5) were seeded in 96-well plates (Greiner BioOne) and incubated for 20 hours. Following a brief wash, cells were incubated overnight (24 hours) in the presence of increasing concentrations (11, 33, 100 μM) of compounds or in the presence of DMSO (control). The MTT assay (Promega) consisted of addition of 20 μl/well MTT reagent and incubation for 45 minutes at 37° C., following the manufacturer's instructions. Absorbance was recorded at 490 nm and corrected for background due to nonspecific absorbance (690 nm). Compounds with a low toxicity at 33.3 μM or less were selected as exemplified in FIG. 3 for compounds 19, 22a, 23, 4 and 17.

cell-surface LDLR = test: Immunofluorescence of cell-surface LDLR in HepG2 naïve cells; details: 33.3 μM, 20 h, non-permeabilized cells
Experimental: HepG2 naïve cells were plated on Poly-L-Lysine-coated (50 ug/ml) round microscope cover slips 1.12 mm thickness (Fisherbrand 12CIR #1) that were placed in a 24-well cell culture plate. Seeding was performed in DMEM complete media (10% FBS) and 24 hours later the media was swapped for media (+0.07% BSA) containing 33.3 μM of the different inhibitor compounds (300 μl/well). A volume of DMSO equivalent to the volume of inhibitor compound was also diluted in 0.07% BSA containing media and used as a negative control. After a 20 hour incubation period, the cells were washed 3× with PBS and then fixed for 10 min with 3.7% paraformaldehyde. Immunofluorescence of human LDLR (green labeling) was performed under non-permeabilizing conditions. After an additional 3 washes with PBS, cells were blocked for 30 min with 1% BSA, followed by overnight incubation at 4° C. with primary antibody (1:200 goat polyclonal anti-hLDLR in 1% BSA, R&D Systems). […] Immunofluorescence analyses were performed with a confocal miscroscope (Zeiss LSM-710).
The PCSK9 inhibitory compounds were characterized by immunofluorescence for cell-surface LDLR and for human transferrin receptor, as control, in HepG2 naïve cells. Cells were plated on Poly-L-Lysine-coated (50 ug/ml) round microscope cover slips 1.12 mm thickness (Fisherbrand 12CIR #1) that were placed in a 24-well cell culture plate. […]

Row | SMILES | Dil-LDL uptake (FIG. 5A, in words) [1] | toxicity in MTT assay [2] | LDLR at the cell surface (immunofluorescence) (cell-surface LDLR)
1 | CCCCCCCCCC(=O)N[C@H](C(=O)N[C@@H](Cc1ccccc1)C(=O)N[C@@H](C)C(=O)NC(CCC(N)=O)C(O)CF)C(C)C (stereo partly drawn) [Example 21a, N-((2S)-1-(((2S)-1-(((2S)-1-((6-Amino-1-fluoro-2-hydroxy-6-oxohexan-3-yl)amino)-1-oxopropan-2-yl)amino)-1-oxo-3-phenylpropan-2-yl)amino)-3-methyl-1-oxobutan-2-yl)decanamide] | increase in the Dil-LDL uptake |  | 
2 | COC(=O)CCC(NC(=O)[C@H](C)NC(=O)[C@H](Cc1ccccc1)NC(=O)[C@@H](NC(=O)OC)C(C)C)B(O)O (mixture of isomers) [Example 17, [(1R/S)-4-Methoxy-1-[(2S)-2-[(2S)-2-[(2S)-2-[(methoxycarbonyl)amino]-3-methylbutanamido]-3-phenylpropanamido]propanamido]-4-oxobutyl]boronic acid] | no measurable activity | low toxicity | 
3 | CC(C)[C@H](NC(=O)c1ccc(-c2ccccc2)cc1)C(=O)N[C@@H](Cc1ccccc1)C(=O)N[C@@H](C)C(=O)NCB(O)O [Example 2, {[(2S)-2-[(2S)-2-[(2S)-3-Methyl-2-[(4-phenylphenyl)formamido]butanamido]-3-phenylpropanamido]propanamido]methyl}boronic acid] | no measurable activity |  | 
4 | CCCCCCCCCC(=O)N[C@H](C(=O)N[C@@H](Cc1ccccc1)C(=O)NC(C)C(=O)NC(CCC(N)=O)C(C)O)C(C)C (single isomer, unassigned) [Example 22a] | increase in the Dil-LDL uptake | low toxicity | 
5 | COC(=O)N[C@H](C(=O)N[C@@H](Cc1ccccc1)C(=O)N[C@@H](C)C(=O)NCB(O)O)C(C)C [Example 1] | no measurable activity |  | 
6 | CCCCCCCCCC(=O)N[C@H](C(=O)N[C@@H](Cc1ccccc1)C(=O)N[C@@H](C)C(=O)NCB(O)O)C(C)C [Example 4, {[(2S)-2-[(2S)-2-[(2S)-2-Decanamido-3-methylbutanamido]-3-phenylpropanamido]propanamido]methyl}boronicacid] |  | low toxicity | 
7 | CC(C)[C@H](NC(=O)Cc1ccc(OC(F)(F)F)cc1)C(=O)N[C@@H](Cc1ccccc1)C(=O)N[C@@H](C)C(=O)NC(CCC(N)=O)C(O)C(F)(F)F (stereo partly drawn) [Example 23, 6,6,6-Trifluoro-5-hydroxy-4-((S)-2-((S)-2-((S)-3-methyl-2-(2-(4-(trifluoromethoxy)phenyl)acetamido)butanamido)-3-phenylpropanamido)propanamido)hexanamide] | increase in the Dil-LDL uptake | low toxicity | 
8 | CCCCCCCCCC(=O)N[C@H](C(=O)N[C@@H](Cc1ccccc1)C(=O)N[C@@H](C)C(=O)NC(CCC(N)=O)C(O)C(F)(F)F)C(C)C (stereo partly drawn) [Example 19, N-((2S)-1-(((2S)-1-(((2S)-1-((6-Amino-1,1,1-trifluoro-2-hydroxy-6-oxohexan-3-yl)amino)-1-oxopropan-2-yl)amino)-1-oxo-3-phenylpropan-2-yl)amino)-3-methyl-1-oxobutan-2-yl)decanamide] | increase in the Dil-LDL uptake | low toxicity | increase of LDLR at the cell surface
